Values belong to the molecule of their own block, whether it stands above or below them. Active and inactive are the calls of the source. No cut-off for these calls is given here.
Columns and labels:
HeLa [1] = assay: Cytotoxicity against human HeLa cells after 48 hrs by MTT assay; format: functional, cell-based
MCF7 [2] = assay: Cytotoxicity against human MCF7 cells after 48 hrs by MTT assay; format: functional, cell-based; details: MCF7, 48 h
HeLa [3] = assay: Cytotoxicity against human HeLa cells after 48 hrs by trypan blue exclusion assay; format: functional, cell-based
MCF7 [4] = assay: Cytotoxicity against human MCF7 cells after 48 hrs by trypan blue exclusion assay; format: functional, cell-based; details: MCF7, 48 h
NIH3T3 [5] = assay: Cytotoxicity against mouse NIH/3T3 cells after 48 hrs by LDH release assay; format: cell-based; details: NIH3T3, 48 h
MCF7 [6] = assay: Cytotoxicity against human MCF7 cells after 48 hrs by LDH release assay; format: functional, cell-based; details: MCF7, 48 h
A549 [7] = assay: Cytotoxicity against human A549 cells after 48 hrs by trypan blue exclusion assay; format: functional, cell-based; details: A549, 48 h
A549 [8] = assay: Cytotoxicity against human A549 cells after 48 hrs by MTT assay; format: functional, cell-based; details: A549, 48 h
HeLa [9] = assay: Cytotoxicity against human HeLa cells after 48 hrs by LDH release assay; format: functional, cell-based
NIH3T3 [10] = assay: Cytotoxicity against mouse NIH/3T3 cells after 48 hrs by MTT assay; format: cell-based; details: NIH3T3, 48 h
A549 [11] = assay: Cytotoxicity against human A549 cells after 48 hrs by LDH release assay; format: functional, cell-based; details: A549, 48 h
NIH3T3 [12] = assay: Cytotoxicity against mouse NIH/3T3 cells after 48 hrs by trypan blue exclusion assay; format: cell-based; details: NIH3T3, 48 h
A549 [13] = assay: Induction of apoptosis in human A549 cells assessed as live cells at IC50 after 12 to 15 hrs by annexin-V-FITC/propidium iodide staining-based flow cytometric method (reference value: 73.8%); format: functional
Chorioallantoic membrane [14] = assay: Ex vivo angioprotective activity in chicken CAM assessed as inhibition of recombinant VEGF165-induced neovuscularization at 1 mg/ml after 72 hrs; format: functional, tissue-based; details: Gallus gallus
Chorioallantoic membrane [15] = assay: In vivo angioprotective activity in chicken CAM assessed as inhibition of recombinant VEGF165-induced neovuscularization at 1 mg/ml after 72 hrs; format: functional, Gallus gallus
A549 [16] = assay: Cell cycle arrest in human A549 cells assessed as accumulation at G0/G1 phase at IC50 after 16 hrs by propidium iodide staining-based flow cytometric method (reference value: 70.8%); format: functional
A549 [17] = assay: Cell cycle arrest in human A549 cells assessed as accumulation at G2/M phase at IC50 after 16 hrs by propidium iodide staining-based flow cytometric method (reference value: 3.44%); format: functional
Chorioallantoic membrane [18] = assay: Ex vivo angioprotective activity in chicken CAM assessed as decrease in recombinant VEGF165-induced total vessel length at 1 mg/ml after 72 hrs; format: functional, tissue-based; design: scale not given: the % may be the effect or the level left; details: Gallus gallus
A549 [19] = assay: Antiangiogenic activity in human A549 cells xenografted in chicken CAM assessed as reduction in recombinant VEGF165-induced MVD/HPF at 1 mg/ml measured on day 12 post fertilization by hematoxylin and eosin staining-based assay relative to control; format: functional; design: scale not given: the % may be the effect or the level left
A549 [20] = assay: Induction of morphological changes in human A549 cells assessed as irregular shape by Giemsa staining-based microscopic method; format: functional, cell-based
A549 [21] = assay: Inhibition of colony formation of human A549 cells at 25 to 50 uM pretreated for 6 hrs followed by subsequent incubation for 12 days by crystal violet staining-based assay; format: functional, cell-based
A549 [22] = assay: Cell cycle arrest in human A549 cells assessed as accumulation at S phase at IC50 after 16 hrs by propidium iodide staining-based flow cytometric method (reference value: 24.8%); format: functional
A549 [23] = assay: Induction of morphological changes in human A549 cells assessed as membrane blebbing by Giemsa staining-based microscopic method; format: functional, cell-based
Homo sapiens = species: Homo sapiens; assay: Induction of endonuclease activity in cytosolic fraction of human A549 cells assessed as increase in DNA lysis zone at 85 uM by SYBR green dye-based agarose gel electrophoresis
Chorioallantoic membrane [24] = assay: In vivo angioprotective activity in chicken CAM assessed as decrease in recombinant VEGF165-induced total vessel length at 1 mg/ml after 72 hrs; format: functional, Gallus gallus; design: scale not given: the % may be the effect or the level left
A549 [25] = assay: Induction of morphological changes in human A549 cells assessed as formation of apoptotic bodies by Giemsa staining-based microscopic method; format: functional, cell-based
A549 [26] = assay: Cell cycle arrest in human A549 cells assessed as decrease in cell levels at G2/M phase at IC50 after 24 to 48 hrs by propidium iodide staining-based flow cytometric method; format: functional
A549 [27] = assay: Induction of apoptosis in human A549 cells assessed as caspase-3 activation by immunoblot method; format: functional, cell-based
A549 [28] = assay: Induction of apoptosis in human A549 cells assessed as necrotic cells at IC50 after 12 to 15 hrs by annexin-V-FITC/propidium iodide staining-based flow cytometric method (reference value: 10.2%); format: functional
A549 [29] = assay: Downregulation of VEGF expression in human A549 cells by immunoblot method; format: functional, cell-based
A549 [30] = assay: Antiangiogenic activity in human A549 cells xenografted in chicken CAM assessed as reduction in recombinant VEGF165-induced MVD/HPF measured on day 12 post fertilization by hematoxylin and eosin staining-based assay; format: functional, cell-based
A549 [31] = assay: Induction of apoptosis in human A549 cells assessed as early apoptotic cells at IC50 after 12 to 15 hrs by annexin-V-FITC/propidium iodide staining-based flow cytometric method (reference value: 1.65%); format: functional
A549 [32] = assay: Inhibition of migration of human A549 cells at 25 uM after 48 hrs by scratch wound assay relative to control; format: functional; details: A549, 48 h
A549 [33] = assay: Antitumor activity against human A549 cells xenografted in chicken CAM assessed as reduction in tumor progression at 1 mg/ml measured on day 12 post fertilization by hematoxylin and eosin staining-based assay relative to control; format: functional
A549 [34] = assay: Cell cycle arrest in human A549 cells assessed as increase in accumulation at sub-G0 phase at IC50 after 48 hrs by propidium iodide staining-based flow cytometric method; format: functional
A549 [35] = assay: Induction of apoptosis in human A549 cells assessed as late apoptotic cells at IC50 after 12 to 15 hrs by annexin-V-FITC/propidium iodide staining-based flow cytometric method (reference value: 14.3%); format: functional
A549 [36] = assay: Cell cycle arrest in human A549 cells assessed as accumulation at sub-G1 phase at IC50 after 16 hrs by propidium iodide staining-based flow cytometric method (reference value: 0.69%); format: functional
A549 [37] = assay: Inhibition of migration of human A549 cells at 50 uM after 48 hrs by scratch wound assay relative to control; format: functional; details: A549, 48 h
[38] = test system: Enterobacteria phage lambda; assay: Induction of lambda phage DNA fragmentation by agarose gel electrophoresis

SMILES: O=C(COc1ccc(C(=O)c2ccccc2)cc1)NNC(=O)c1ccc(=O)oc1
IC50 (HeLa [1]): 99.1 µM
IC50 (MCF7 [2]): 93.2 µM
IC50 (HeLa [3]): 89.2 µM
IC50 (MCF7 [4]): 92.9 µM
IC50 (NIH3T3 [5]): 88.2 µM
IC50 (MCF7 [6]): 61.1 µM
IC50 (A549 [7]): 96.7 µM
IC50 (A549 [8]): 98.8 µM
IC50 (HeLa [9]): 96.1 µM
IC50 (NIH3T3 [10]): 87.3 µM
IC50 (A549 [11]): 90.9 µM
IC50 (NIH3T3 [12]): 84.3 µM

Activity (Homo sapiens): Active
Activity [38]: Active
SMILES: Cc1ccc(C(=O)c2cc(F)c(OCC(=O)NNC(=O)c3cn(C)cn3)c(Cl)c2)cc1
IC50 (HeLa [1]): 9.9 µM
Activity (A549 [13]): 33.5%
inhibition (Chorioallantoic membrane [14]): 26%
IC50 (MCF7 [2]): 9.8 µM
inhibition (INH) (Chorioallantoic membrane [15]): 24%
Activity (A549 [16]): 75.9%
Activity (A549 [17]): 1.62%
Activity (Chorioallantoic membrane [18]): 85%
Activity (A549 [19]): 86.2%
Activity (A549 [20]): Active
inhibition (A549 [21]): Active
Activity (A549 [22]): 16.7%
Activity (A549 [23]): Active
IC50 (HeLa [3]): 10.2 µM
Activity (Chorioallantoic membrane [24]): 85%
Activity (A549 [25]): Active
Activity (A549 [26]): Active
Activity (A549 [27]): Active
IC50 (MCF7 [4]): 9.5 µM
Activity (A549 [28]): 17.4%
Activity (A549 [29]): Active
Activity (A549 [30]): Dose-dependent effect
Activity (A549 [31]): 0.6%
inhibition at 25 µM (A549 [32]): 15.6%
IC50 (NIH3T3 [5]): 94.9 µM
IC50 (MCF7 [6]): 9.4 µM
IC50 (A549 [7]): 9.6 µM
IC50 (A549 [8]): 8.8 µM
IC50 (HeLa [9]): 10.4 µM
IC50 (NIH3T3 [10]): 94.2 µM
IC50 (A549 [11]): 9.1 µM
fold change (FC) (A549 [33]): 1.7
Activity (A549 [34]): Active
Activity (A549 [35]): 48.4%
Activity (A549 [36]): 5.83%
inhibition at 50 µM (A549 [37]): 78.8%
IC50 (NIH3T3 [12]): 93.8 µM

SMILES: O=C(COc1c(F)cc(C(=O)c2ccc(Cl)cc2)cc1Cl)NNC(=O)c1ccc(=O)oc1
IC50 (HeLa [1]): 87.1 µM
IC50 (MCF7 [2]): 86.2 µM
IC50 (HeLa [3]): 89.6 µM
IC50 (MCF7 [4]): 90.6 µM
IC50 (NIH3T3 [5]): 78.6 µM
IC50 (MCF7 [6]): 83.8 µM
IC50 (A549 [7]): 86.7 µM
IC50 (A549 [8]): 88.8 µM
IC50 (HeLa [9]): 85.1 µM
IC50 (NIH3T3 [10]): 77.6 µM
IC50 (A549 [11]): 84.9 µM
IC50 (NIH3T3 [12]): 79.3 µM

SMILES: Cc1ccc(C(=O)c2cc(F)c(OCC(=O)NNC(=O)c3ccc(=O)oc3)c(Cl)c2)cc1
IC50 (HeLa [1]): 20.9 µM
IC50 (MCF7 [2]): 23.6 µM
IC50 (HeLa [3]): 26.2 µM
IC50 (MCF7 [4]): 29.1 µM
IC50 (NIH3T3 [5]): 32.1 µM
IC50 (MCF7 [6]): 24.2 µM
IC50 (A549 [7]): 19.6 µM
IC50 (A549 [8]): 22.6 µM
IC50 (HeLa [9]): 26.9 µM
IC50 (NIH3T3 [10]): 28.9 µM
IC50 (A549 [11]): 21.4 µM
IC50 (NIH3T3 [12]): 30.8 µM
